Experimental data as given in PubChem BioAssay (NCI).
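Cultured in 96-well plates, cells were exposed to test compound for 48 hours across five concentrations. At the TGI there is no net growth.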 *1 amine or outer side, *2 acyl side, *3 side chain or, on linkers, in order; H or OH if unused. Where a SMILES comes first, the peptide text is derived from it. Bridges are numbered along the chain shown (N, C = ends). [ ]: non-standard residue; d: D form. X35 = CC[C@H](C)[C@@H](N[*:1])[C@@H](O)CC(=O)O[C@H](C(=O)[C@H](C)C(=O)[*:2])C(C)C; NMeY = CN[C@@H](Cc1ccc(O)cc1)C(=O)O

What was measured:
Experiment in all cases: NCI tumour cell line growth inhibition, 48 h
SNB-19 CNS = system: SNB-19 CNS
SF-539 CNS = system: SF-539 CNS
SK-MEL-5 melanoma = system: SK-MEL-5 melanoma
HS 578T breast = system: HS 578T breast
HCC-2998 colon = system: HCC-2998 colon
OVCAR-8 ovarian = system: OVCAR-8 ovarian
M14 melanoma = system: M14 melanoma
NCI-H23 lung = system: NCI-H23 lung
SK-MEL-28 melanoma = system: SK-MEL-28 melanoma
MCF7 breast = system: MCF7 breast
SK-MEL-2 melanoma = system: SK-MEL-2 melanoma
U251 CNS = system: U251 CNS
UACC-62 melanoma = system: UACC-62 melanoma
OVCAR-3 ovarian = system: OVCAR-3 ovarian
NCI-H226 lung = system: NCI-H226 lung
SK-OV-3 ovarian = system: SK-OV-3 ovarian
HOP-62 NSCLC = system: HOP-62 NSCLC
CCRF-CEM leukemia = system: CCRF-CEM leukemia
NCI-H522 lung = system: NCI-H522 lung
OVCAR-4 ovarian = system: OVCAR-4 ovarian
ACHN renal = system: ACHN renal
K-562 leukemia = system: K-562 leukemia
LOX IMVI melanoma = system: LOX IMVI melanoma
MDA-MB-435 = system: MDA-MB-435
OVCAR-5 ovarian = system: OVCAR-5 ovarian
SW-620 colon = system: SW-620 colon
HL-60(TB) leukemia = system: HL-60(TB) leukemia
RPMI-8226 leukemia = system: RPMI-8226 leukemia
EKVX NSCLC = system: EKVX NSCLC
HCT-15 colon = system: HCT-15 colon
TK-10 renal = system: TK-10 renal
UO-31 renal = system: UO-31 renal
BT-549 breast = system: BT-549 breast
KM12 colon = system: KM12 colon
MALME-3M melanoma = system: MALME-3M melanoma
UACC-257 melanoma = system: UACC-257 melanoma
786-0 renal = system: 786-0 renal
SR leukemia = system: SR leukemia
SNB-75 CNS = system: SNB-75 CNS
NCI-H460 lung = system: NCI-H460 lung
RXF 393 renal = system: RXF 393 renal
MOLT-4 leukemia = system: MOLT-4 leukemia
A549 NSCLC = system: A549 NSCLC
SF-268 CNS = system: SF-268 CNS
SF-295 CNS = system: SF-295 CNS
IGROV1 ovarian = system: IGROV1 ovarian
HT29 colon = system: HT29 colon
SN12C renal = system: SN12C renal
NCI/ADR-RES ovarian = system: NCI/ADR-RES ovarian
PC-3 prostate = system: PC-3 prostate

## CC[C@H](C)[C@H]1NC(=O)[C@@H](N)[C@@H](C)OC(=O)[C@H](Cc2ccc(OC)cc2)N(C)C(=O)[C@@H]2CCCN2C(=O)[C@H](CC(C)C)NC(=O)[C@@H](C)C(=O)[C@H](C(C)C)OC(=O)C[C@@H]1O (H-T[X35]LP[NMeY](Me); ester 1-C)
SNB-19 CNS
  TGI: > 100 µM
SF-539 CNS
  TGI: 66.2 µM
SK-MEL-5 melanoma
  TGI: 54.9 µM
HS 578T breast
  TGI: > 100 µM
HCC-2998 colon
  TGI: > 100 µM
OVCAR-8 ovarian
  TGI: > 100 µM
M14 melanoma
  TGI: 32.3 µM
NCI-H23 lung
  TGI: > 100 µM
SK-MEL-28 melanoma
  TGI: > 100 µM
MCF7 breast
  TGI: > 100 µM
SK-MEL-2 melanoma
  TGI: > 100 µM
U251 CNS
  TGI: > 100 µM
UACC-62 melanoma
  TGI: 92.3 µM
OVCAR-3 ovarian
  TGI: > 100 µM
NCI-H226 lung
  TGI: > 100 µM
SK-OV-3 ovarian
  TGI: > 100 µM
HOP-62 NSCLC
  TGI: > 100 µM
CCRF-CEM leukemia
  TGI: > 100 µM
NCI-H522 lung
  TGI: 25.1 µM
OVCAR-4 ovarian
  TGI: > 100 µM
ACHN renal
  TGI: > 100 µM
K-562 leukemia
  TGI: > 100 µM
LOX IMVI melanoma
  TGI: > 100 µM
MDA-MB-435
  TGI: 56.1 µM
OVCAR-5 ovarian
  TGI: > 100 µM
SW-620 colon
  TGI: 50.1 µM
HL-60(TB) leukemia
  TGI: > 100 µM
RPMI-8226 leukemia
  TGI: > 100 µM
EKVX NSCLC
  TGI: > 100 µM
HCT-15 colon
  TGI: > 100 µM
TK-10 renal
  TGI: > 100 µM
UO-31 renal
  TGI: 68.7 µM
BT-549 breast
  TGI: 45.9 µM
KM12 colon
  TGI: 68.1 µM
MALME-3M melanoma
  TGI: > 100 µM
UACC-257 melanoma
  TGI: > 100 µM
786-0 renal
  TGI: > 100 µM
SR leukemia
  TGI: > 100 µM
SNB-75 CNS
  TGI: > 100 µM
NCI-H460 lung
  TGI: > 100 µM
RXF 393 renal
  TGI: > 100 µM
MOLT-4 leukemia
  TGI: > 100 µM
A549 NSCLC
  TGI: > 100 µM
SF-268 CNS
  TGI: > 100 µM
SF-295 CNS
  TGI: > 100 µM
IGROV1 ovarian
  TGI: > 100 µM
HT29 colon
  TGI: 38.8 µM
SN12C renal
  TGI: > 100 µM
NCI/ADR-RES ovarian
  TGI: > 100 µM
PC-3 prostate
  TGI: > 100 µM
